“Also recorded” adds a separate entry of the source. Marks after values point to notes of the source that are not given here. l = locked nucleic acid (LNA); d = 2'-deoxy (DNA)
Columns and labels:
[1] = system: myopia-induced C57BL/6J mice; test: Example 5: validation of DNA 16mer and LNA 403 versus atropine in myopia-induced mice; type: in vivo; conditions: for Mean of delta AXL: right eye covered 4 weeks, 30 μL on day 30, 37 and 44, day 51
Experimental: (§1) The 21 days old C57BL/6J mice were purchased from the National Laboratory Animal Center, Taiwan. All animal experiments were in compliance with the ARVO Statement for the Use of Animals in Ophthalmic and Vision Research. The procedure of myopia induction is described briefly as the following: Right eyes of the 23 days old mice were covered for 4 weeks to induce myopia (i.e. nearsightedness) and the left eyes were uncovered. Then the right eyes of the myopia-induced mice were treated with 30 μL of saline (i.e. negative control group), 1% atropine (i.e. positive control group), DNA16mer or LNA403 at 1 μM on 30th, 37th and 44th day. Mice were sacrificed on 51th day and the eyes were collected. The isolated eyes were photographed under a dissection microscope and the axial lengths were measured using imageJ and a proprietary software for automatic measure. Myopia (nearsightedness) causes elongation of axial length, which is the major pathological change in myopia. The difference of axial length (i.e. delta axial length) between the covered right eye and the non-covered left eye of the same mouse indicates the severity of myopia. Statistical evaluation was done by using Mann-Whitney U test. Analysis with p-values <0.05 being considered significant.

miR-328 = test: In vitro inhibition of miR-328 expression by antisense oligonucleotides transfected into ARPE-19 RPE cells (qRT-PCR, normalized to U6); type: cell-based, human; conditions: for inhibitory effect on miR-328 expression: RPE cells (ARPE-19), Lipofectamine 2000 transfection, 24 hours; for inhibition of miR-328 expression in vitro (in words): RPE cells, 30, 50 and 100 nM
Experimental: Cell Culture, Treatments, and Transfection
An RPE cell line called “ARPE-19” was grown in Dulbecco's modified Eagle's medium (DMEM)/F12 medium. The cell line was grown with 1% penicillin/streptomycin and 10% heat-inactivated fetal bovine serum (FBS) at 37° C. in a humidified atmosphere of 95% air/[…] carbon dioxide (CO2). To conduct the transfection experiments, cells were seeded into a 12-well plate at a density of 1×10^5 cells/well. After achieving 70% confluence in a well, antisense oligonucleotides (concentrations of 30, 50 and 100 nM) were transfected with Lipofectamine 2000 (Invitrogen) according to the manufacturer's instructions. After 24 hours of incubation, cells were lysed for further studies.
Detect the Inhibition of miR-328 Expression by Antisense Oligonucleotides
Total RNA was extracted from cultured cells using Trizol according to the manufacturer's instructions. RNA purity was checked using A260/A280 readings. miR-328 was first reversed transcribed to miR-328 cDNA using the following procedure: 5 ng of RNA was reverse transcribed with miR-328 specific primer and MultiScribe reverse transcriptase kit (Applied Biosystems). To measure the miR-328 expression, quantitative real-time PCR was performed on an ABI 7500 real-time PCR machine (Applied Biosystems) with miR-328 specific probe according to manufacturer's instructions (Applied Biosystems). The inhibitory effect by antisense oligonucleotides was evaluated by measuring the level of miR-328 cDNA by quantitative real-time PCR. The expression level of miR-328 was normalized to that of a small non-coding nuclear RNA U6 as the internal control.

[2] = system: myopia-induced C57BL/6J mice; test: Example 4: efficacy in myopia-induced mice, delta axial length; type: in vivo; conditions: for reduction of delta axial length compared to control group: 1 μM on day 30, 37 and 44, versus saline; for activity in treating myopia in mice (in words) / Delta axial length, mm mean (SD) / average delta axial length compared with control animals (in words): 1 μM; for activity in treating myopia in mice (in words): decrease of average axial length; for Delta axial length, mm mean (SD): right (myopia) minus left eye, 30 μL to right eye on day 30, 37 and 44, eyes collected day 51; for average delta axial length compared with control animals (in words): versus saline, Mann-Whitney U test
Experimental: as §1, with “covered” for “covered for 4 weeks”, “(i.e.” for “(i.e. negative”, “DNA16mer, DNA17mer, LNA403, LNA404,” for “1% atropine (i.e. positive control group), DNA16mer”, “LNA405,” for “LNA403”, “[…]” for “imageJ and a proprietary software for automatic measure.”, “p-values<0.05” for “p-values <0.05”

Safety in animal studies = type: in vivo
[3] = system: myopia-induced C57BL/6J mice; test: Example 6: confirmation of DNA 16mer by a CRO in myopia-induced mice; type: in vivo; conditions: for left eye axial, mm Mean: left eye uncovered
Description: The procedure of myopia induction is: The 21 days old C57BL/6J mice were purchased from the National Laboratory Animal Center, Taiwan. All animal experiments were in compliance with the ARVO Statement for the Use of Animals in Ophthalmic and Vision Research. The procedure of myopia induction is described briefly as the following: Right eyes of the 23 days old mice were covered for 4 weeks to induce myopia and the left eyes were uncovered. Then the right eyes of the myopia-induced mice were treated with […], of saline (i.e. negative control group), 1% atropine (i.e. positive control group), 10 nM, 100 nM, and 1 μM of DNA 16mer on 30th, 37th and 44th day. Mice were sacrificed on 51th day and the eyes were collected. The isolated eyes were photographed under a dissection microscope and the axial lengths were measured using imageJ and a proprietary software for automatic measure. Myopia (nearsightedness) causes elongation of axial length, which is the major pathological change in myopia. The difference of axial length (i.e. delta axial length) between the covered right eye and the non-covered left eye of the same mouse indicates the severity of myopia.

myopic pigmented rabbits = test: Example 7: DNA 16mer in myopic pigmented rabbits, delta axial length by A-scan; type: in vivo, rabbit; conditions: 20 μL to right eye every other day from day 35, AXL of day 61
Experimental: The procedure of myopia induction: The 3 days old pigmented rabbits were purchased from the DA-ZONG livestock farm, Taiwan. All animal experiments were in compliance with the ARVO Statement for the Use of Animals in Ophthalmic and Vision Research. On the age of 7 days, the right eye of the rabbit was covered for 8 weeks to induce myopia, and the left eye left uncovered. The axial lengths (AXL) of both eyes were measured by A-scan (Sonomed®, PACSCAN 300A, USA) once a week since day 21. We defined myopia as right eye AXL is longer than left eye AXL by 0.2 mm or longer on day 35. If a rabbit reached this defined criterion, the right eye of such a myopic rabbit was treated with […], of saline (i.e. control group) or DNA16mer (20 μL) at 10 μM or 50 uM every other day since day 35 till day 63. The final AXL measured on day 61 was used to obtain to calculate the difference between right AXL and left AXL (i.e. delta AXL). If there is no therapeutic effect, the delta AXL will be a positive value.

Row | Molecule | inhibitory effect on miR-328 expression (miR-328; 30 nM) [%] | inhibitory effect on miR-328 expression (miR-328; 50 nM) [%] | inhibitory effect on miR-328 expression (miR-328; 100 nM) [%] | inhibition of miR-328 expression in vitro (in words) (miR-328) | reduction of delta axial length compared to control group [2] [mm] | Delta axial length, mm mean (SD) [2] | further results
1 | 5′-+C*+G*+G*+A*A*G*G*G*C*A*G*A*G*A*G*G*+G*+C*+C*+A-3′ (antisense CGGAAGGGCAGAGAGGGCCA; sugars from the 5' end l4 d12 l4, all phosphorothioate, methylation of C not given here) [LNA403, LNA-modified and PS bond-modified anti-sense miR-328 oligonucleotide, 20 mer] | 97 | 97 | 90 | inhibited | 0.054 | −0.036 (0.079)* mm | efficacy in reducing elongation of eyeball compared with 1% atropine (in words) ([1]; 1 μM): more effective than 1% atropine; Mean of delta AXL ([1]; 1 μM): −0.052; activity in treating myopia in mice (in words) [2]: effective in treating myopia in mice; activity in treating myopia in mice (in words) ([2]; listed as 403): exhibited an activity for treating myopia
2 | 5′-+G*+A*+A*+G*G*G*C*A*G*A*G*A*G*G*+G*+C*+C*+A-3′ (antisense GAAGGGCAGAGAGGGCCA; sugars from the 5' end l4 d10 l4, all phosphorothioate, methylation of C not given here) [LNA405, LNA-modified and PS bond-modified anti-sense miR-328 oligonucleotide, 18 mer] | 98 | 98 | 99 | inhibited | 0.035 | −0.017 (0.054) mm | 
3 | 5′-+G*+G*+A*+A*G*G*G*C*A*G*A*G*A*G*G*+G*+C*+C*+A-3′ (antisense GGAAGGGCAGAGAGGGCCA; sugars from the 5' end l4 d11 l4, all phosphorothioate, methylation of C not given here) [LNA404, LNA-modified and PS bond-modified anti-sense miR-328 oligonucleotide, 19 mer] | 98 | 98 | 99 | inhibited | 0.025 | −0.007 (0.100) mm | 
4 | 5′-AAGGGCAGAGAGGGCCA-3′ (DNA, backbone not given here) [DNA 17mer, anti-sense miR-328 oligodeoxyribonucleotide] | 43 | 41 | 48 | inhibited | 0.065 | −0.047 (0.073)* mm | safety in animal studies (in words) (Safety in animal studies): safe; activity in treating myopia in mice (in words) ([2]; listed as 17mer): exhibited an activity for treating myopia; activity in treating myopia in mice (in words) ([2]; listed as DNA17mer): effective in treating myopia in mice; average delta axial length compared with control animals (in words) [2]: statistically significantly smaller
5 | 5′-AGGGCAGAGAGGGCCA-3′ (DNA, backbone not given here) [DNA 16mer, anti-sense miR-328 oligodeoxyribonucleotide] | 39 | 35 | 49 | inhibited | 0.077 | −0.059 (0.061)* mm | efficacy in reducing elongation of eyeball compared with 1% atropine (in words) ([1]; 1 μM): more effective than 1% atropine; Mean of delta AXL ([1]; 1 μM): −0.055; safety in animal studies (in words) (Safety in animal studies): safe; Delta axial length Mean ([3]; 10 nM): −0.056; right eye axial, mm Mean ([3]; 10 nM to right (myopia) eye): 3.083 mm; left eye axial, mm Mean ([3]; 10 nM to right eye): 3.139 mm; Delta axial length Mean ([3]; 100 nM): −0.069; right eye axial, mm Mean ([3]; 100 nM to right (myopia) eye): 3.023 mm; left eye axial, mm Mean ([3]; 100 nM to right eye): 3.092 mm; Delta axial length Mean ([3]; 1 μM): −0.058; right eye axial, mm Mean ([3]; 1 μM to right (myopia) eye): 3.052 mm; left eye axial, mm Mean ([3]; 1 μM to right eye): 3.110 mm; Delta axial length Mean (myopic pigmented rabbits; 10 μM): −0.234; Delta axial length Mean (myopic pigmented rabbits; 50 μM): −0.370; activity in treating myopia in mice (in words) ([2]; listed as 16mer): exhibited an activity for treating myopia; activity in treating myopia in mice (in words) ([2]; listed as DNA16mer): effective in treating myopia in mice; average delta axial length compared with control animals (in words) [2]: statistically significantly smaller
6 | 5′-GGGCAGAGAGGGCCA-3′ (DNA, backbone not given here) [15mer, anti-sense miR-328 oligodeoxyribonucleotide] |  |  |  | did not show any activity; also recorded: no inhibitory effect |  |  | 
7 | CN1[C@@H]2CC[C@H]1C[C@@H](OC(=O)C(CO)c1ccccc1)C2 (stereo partly drawn) [Atropine, atropine, reference compound] |  |  |  |  |  |  | Mean of delta AXL ([1]; 1% atropine): −0.037; Delta axial length Mean ([3]; 1% atropine): −0.060; right eye axial, mm Mean ([3]; 1% atropine to right (myopia) eye): 3.049 mm; left eye axial, mm Mean ([3]; 1% atropine to right eye): 3.108 mm

— patent US10179913B2, “MicroRNA-328 anti-sense composition and therapeutic use” (KAOHSIUNG MEDICAL UNIVERSITY, priority 2015, dated 2019)
